Measured values reported in article PMC8320897, “Inhibition of PI3K and MAPK pathways along with KIT inhibitors as a strategy to overcome drug resistance in gastrointestinal stromal tumors” (PLoS ONE, 2021).
Read-outs that look alike come from different tables or passages of the source.

What was measured:
GIST-T1/670 [1] = assay: Cell proliferation assay (Cell Counting Kit-8); type: cell-based, human; conditions: read-out: IC50 T1/670
GIST882 = assay: Cell proliferation assay (Cell Counting Kit-8), drug screen; type: cell-based; conditions: read-out: IC50 GIST882
GIST-T1 [2] = assay: as above; type: cell-based, human; conditions: read-out: IC50 GIST-T1
GIST-T1/10R = assay: Cell proliferation assay (Cell Counting Kit-8); type: cell-based, human; conditions: read-out: IC50 T1-10R
[3] = tested on: imatinib sensitive cell lines; assay: Cell proliferation assay; type: cell-based
MCF7 [4] = assay: Cell proliferation assay, control cell line; conditions: Homo sapiens, MCF7, 72 h, read-out: IC50 MCF7
MRC5 = assay: Cell proliferation assay, control cell line; conditions: Homo sapiens, MRC5, 72 h, read-out: IC50 MRC5
GIST-T1/670 [5] = assay: Caspase 3/7 apoptosis assay; type: cell-based, human; conditions: GIST-T1/670, 48 h
Description: (§1) Inhibitor concentrations used were as mentioned in figure legends.
(§2) Fig 4 Combined Inhibition of KIT, PI3K and MAPK signaling pathways induces apoptosis in GIST cells. […] The data is represented as percent increase over untreated cells; each column represents mean of triplicates. […] (***p<0.0001); (**p<0.001); (*p<0.05).

p-MAPK = assay: Immunoblot analysis of p-MAPK (p-ERK); type: cell-based; conditions: 24 h
metastatic GIST = conditions: cited from earlier work
GIST-T1 [6] = assay: Caspase 3/7 apoptosis assay; type: cell-based, human; conditions: GIST-T1, 48 h, single agent
Description: as §1, §2

[7] = tested on: imatinib sensitive and resistant cell lines; assay: Caspase 3/7 apoptosis assay of screen hits; conditions: 24 h and 48 h; irinotecan 0.5 μM, sorafenib 500 nM, compound C 5 μM, triptolide 25 nM
Method: (§3) Around 10,000 cells/well were plated in complete media in 96-well white flat-bottom plates and therapeutic compounds were added 24 hours later. Apoptosis was evaluated by measuring caspase-3/7 activity using Caspase-Glo 3/7 Assay System (Promega, WI, USA) after 24 and 48 h of treatment with inhibitors. […] Inhibitor concentrations used were as mentioned in figure legends.
(§4) The data is represented as % of control; each bar represents the mean of triplicates. […] Cells were treated with inhibitors at indicated concentrations for 24 h.

MCF7 [8] = assay: Caspase 3/7 apoptosis assay of screen hits; type: cell-based; conditions: triptolide 25 nM
Method: as §3, §4

[9] = cell viability after 72 hours of treatment
[10] = Homo sapiens, GISTT1, cell viability after 72 hours of treatment
[11] = Homo sapiens, GIST882, cell viability after 72 hours of treatment

Molecule	IC50 (GIST-T1/670 [1]; [10]) [µM]	IC50 (GIST882; [11]) [µM]	IC50 (GIST-T1 [2]; [10]) [µM]	IC50 (GIST-T1/10R; [10]) [µM]	further results
Nc1ncnc2c1c(I)cn2[C@@H]1O[C@H](CO)[C@@H](O)[C@H]1O [5-iodotubercidin]	–	–	–	–	IC50 (GIST-T1/670 [1]; [9]): ≥ 5 µM; IC50 (GIST882; [9]): ≥ 5 µM; IC50 (GIST-T1 [2]; [9]): ≥ 5 µM; IC50 (GIST-T1/10R; [9]): ≥ 5 µM
COc1c(C[C@@H](C)OC(=O)Oc2ccc(O)cc2)c2c3c(C[C@@H](C)OC(=O)c4ccccc4)c(OC)c(=O)c4c(O)cc(OC)c(c5c(OC)cc(O)c(c1=O)c52)c43 [Calphostin C]	–	–	–	–	IC50 (GIST-T1/670 [1]; Homo sapiens, GISTT1, 72 h): > 1 µM; IC50 (GIST882; Homo sapiens, GIST882, 72 h): 0.1 µM; concentration that inhibited the proliferation of imatinib sensitive cell lines ([3]; 72 h): < 0.5 µM; IC50 (GIST-T1 [2]; Homo sapiens, GISTT1, 72 h): 0.1 µM; IC50 (GIST-T1/10R; Homo sapiens, GISTT1, 72 h): > 1 µM
c1cc(-c2cnn3cc(-c4ccc(OCCN5CCCCC5)cc4)cnc23)ccn1 [Compound C]	–	–	–	–	IC50 (GIST-T1/670 [1]; [9]): 5 µM; IC50 (GIST882; [9]): < 0.1 µM; concentration that inhibited the proliferation of imatinib sensitive cell lines ([3]; 72 h): < 0.5 µM; IC50 (GIST-T1 [2]; [9]): < 0.1 µM; IC50 (GIST-T1/10R; [9]): 5 µM
Cc1nc(Nc2ncc(C(=O)Nc3c(C)cccc3Cl)s2)cc(N2CCN(CCO)CC2)n1 [Dasatinib]	> 10	< 0.1	0.025	> 10	–
C[C@H]1O[C@@H](O[C@H]2[C@@H](O)C[C@H](O[C@H]3[C@@H](O)C[C@H](O[C@H]4CC[C@@]5(C)[C@H](CC[C@@H]6[C@@H]5CC[C@]5(C)[C@@H](C7=CC(=O)OC7)CC[C@]65O)C4)O[C@@H]3C)O[C@@H]2C)C[C@H](O)[C@@H]1O [Digitoxin]	0.5	< 0.5	< 0.1	0.5	concentration that inhibited the proliferation of imatinib sensitive cell lines [3]: < 0.5 µM
C#Cc1cccc(Nc2ncnc3cc(OCCOC)c(OCCOC)cc23)c1 [Erlotinib]	> 10	> 10	> 10	> 10	–
Cc1cc([N+](=O)[O-])ccc1NS(=O)(=O)c1cc(Cl)ccc1Cl [FH535]	–	–	–	–	IC50 (GIST-T1/670 [1]; [9]): > 15 µM; IC50 (GIST882; [9]): > 30 µM; IC50 (GIST-T1 [2]; [9]): > 30 µM; IC50 (GIST-T1/10R; [9]): > 15 µM
O=S(=O)(c1cccc2cnccc12)N1CCCNCC1 [Fasudil]	~70	~70	~70	~70	–
O=c1c(-c2ccc(O)cc2)coc2cc(O)cc(O)c12 [Genistein]	> 50	> 50	> 50	> 50	–
O=S(=O)(NCCNC/C=C/c1ccc(Br)cc1)c1cccc2cnccc12 [H-89]	–	–	–	–	IC50 (GIST882; [9]): > 25 µM; IC50 (GIST-T1 [2]; [9]): > 25 µM
O=C1Nc2ccccc2/C1=C1/Nc2ccccc2/C1=N\O [Indirubin-3’-Monoxime]	–	–	–	–	IC50 (GIST-T1/670 [1]; [9]): > 10 µM; IC50 (GIST882; [9]): > 10 µM; IC50 (GIST-T1 [2]; [9]): > 10 µM; IC50 (GIST-T1/10R; [9]): > 10 µM
CCc1c2c(nc3ccc(OC(=O)N4CCC(N5CCCCC5)CC4)cc13)-c1cc3c(c(=O)n1C2)COC(=O)[C@]3(O)CC [Irinotecan]	5	0.5	0.5	5	IC50 (MCF7 [4]): 5 µM; IC50 (MRC5): 5 µM; concentration that inhibited the proliferation of imatinib sensitive cell lines ([3]; 72 h): < 0.5 µM
CC(C)(C)c1nc2c3cc[nH]c(=O)c3c3cc(F)ccc3c2[nH]1 [JAK Inhibitor 1]	–	–	–	–	IC50 (GIST-T1/670 [1]; [9]): > 15 µM; IC50 (GIST882; [9]): > 10 µM; IC50 (GIST-T1 [2]; [9]): > 10 µM; IC50 (GIST-T1/10R; [9]): > 15 µM
O=C1C=CC(=O)c2c(O)cccc21 [Juglone]	5	5	5	5	–
O=C(O)c1cc(N(Cc2ccccc2O)Cc2cc(O)ccc2O)ccc1O [Lavendustin A]	> 15	> 100	> 100	> 15	–
C[C@]12O[C@H](C[C@]1(O)CO)n1c3ccccc3c3c4c(c5c6ccccc6n2c5c31)CNC4=O [Lestaurtinib]	5	> 10	0.1	5	IC50 (MCF7 [4]): > 10 µM; IC50 (MRC5): > 10 µM; concentration that inhibited the proliferation of imatinib sensitive cell lines ([3]; 72 h): < 0.5 µM

Molecule	IC50 (GIST-T1/670 [1]; [10]) [µM]	IC50 (GIST882; [11]) [µM]	IC50 (GIST-T1 [2]; [10]) [µM]	IC50 (GIST-T1/10R; [10]) [µM]	further results
Cc1ccc(NC(=O)c2ccc(CN3CCN(C)CC3)cc2)cc1Nc1nc(-c2cccnc2)cs1 [Masatinib]	5	0.05	0.025	5	–
Cc1cn(-c2cc(NC(=O)c3ccc(C)c(Nc4nccc(-c5cccnc5)n4)c3)cc(C(F)(F)F)c2)cn1 [Nilotinib]	> 10	0.025	0.025	> 10	–
O=C(NOC[C@H](O)CO)c1ccc(F)c(F)c1Nc1ccc(I)cc1F [PD325901]	–	–	–	–	IC50 (GIST-T1/670 [1]; Homo sapiens, GISTT1, 72 h): 1 µM; IC50 (GIST882; Homo sapiens, GIST882, 72 h): 0.5 µM; increase in apoptosis (caspase 3/7 activity) (GIST-T1/670 [5]; over untreated cells): about two; inhibition of p-MAPK (p-MAPK; 100 nM, any of the cell lines tested, western blot): not sufficient to inhibit; inhibition at 0.5 µM (p-MAPK; read-out: inhibition of p-MAPK): ~80%; concentration that inhibited the proliferation of imatinib sensitive cell lines ([3]; 72 h): < 0.5 µM; IC50 (GIST-T1 [2]; Homo sapiens, GISTT1, 72 h): 0.5 µM; IC50 (GIST-T1/10R; Homo sapiens, GISTT1, 72 h): 1 µM
Cc1ccc(Nc2nccc(N(C)c3ccc4c(C)n(C)nc4c3)n2)cc1S(N)(=O)=O [Pazopanib]	> 5	0.5	0.025	> 1	IC50 (MCF7 [4]): > 10 µM; IC50 (MRC5): > 10 µM
CNC(=O)c1cc(Oc2ccc(NC(=O)Nc3ccc(Cl)c(C(F)(F)F)c3)c(F)c2)ccn1 [Regorafenib]	1	< 0.1	< 0.1	1	time until resistance occurs (metastatic GIST; second-line / third-line therapy): 6–12 months; IC50 (MCF7 [4]): > 10 µM; IC50 (MRC5): > 10 µM; induction of apoptosis (caspase 3/7 activity) (GIST-T1/670 [5]; single agent): able to induce apoptosis effectively; induction of apoptosis (caspase 3/7 activity) (GIST-T1 [6]): did not induce apoptosis
CCn1c(=O)c(-c2cc(NC(=O)Nc3ccccc3)c(F)cc2Br)cc2cnc(NC)cc21 [Ripretinib]	–	–	–	–	mean progression-free survival (metastatic GIST; 4th line therapy): 6.3 months
Nc1ncnc2c1nc(Br)n2C1OC2COP(O)(=S)OC2C1O (stereo not shown) [Rps-Br-cAMPS]	–	–	–	–	IC50 (GIST882; [9]): > 100 µM; IC50 (GIST-T1 [2]; [9]): > 100 µM
Oc1c2ccccc2c2c3c(cccc13)N=N2 [SP600125]	1	1	1	1	–
O=C1CCc2c(ccc3ccccc23)O1 [Splitomicin]	> 10	15	> 10	> 10	IC50 (MCF7 [4]): > 10 µM; IC50 (MRC5): > 10 µM
CO[C@H]1C[C@@H]2CC[C@@H](C)[C@@](O)(O2)C(=O)C(=O)N2CCCC[C@H]2C(=O)O[C@H]([C@H](C)C[C@@H]2CC[C@@H](OC(=O)C(C)(CO)CO)[C@H](OC)C2)CC(=O)[C@H](C)/C=C(\C)[C@@H](O)[C@@H](OC)C(=O)[C@H](C)C[C@H](C)/C=C/C=C/C=C/1C [Temsirolimus]	> 100	> 100	> 100	> 100	–
O=C1CCC(N2C(=O)c3ccccc3C2=O)C(=O)N1 (stereo not shown) [Thalidomide]	> 100	> 100	> 100	> 100	–
Cc1cc(Nc2cc(N3CCN(C)CC3)nc(Sc3ccc(NC(=O)C4CC4)cc3)n2)[nH]n1 [Tozasertib]	> 10	5	5	> 10	IC50 (MCF7 [4]): 5 µM; IC50 (MRC5): 5 µM
CC(C)[C@]12O[C@H]1[C@@H]1O[C@]13[C@]1(O[C@H]1C[C@H]1C4=C(CC[C@@]13C)C(=O)OC4)[C@@H]2O [Triptolide]	< 0.025	< 0.01	< 0.01	< 0.025	cytotoxic effects (caspase 3/7 activity) [7]: ≥ 2 fold; IC50 (MCF7 [4]): > 10 µM; IC50 (MRC5): 0.01 µM; cytotoxicity (caspase 3/7 activity) in MCF7 (MCF7 [8]): showed cytotoxicity; concentration that inhibited the proliferation of imatinib sensitive cell lines ([3]; 72 h): < 0.5 µM
Clc1ccc(Nc2nnc(Cc3ccncc3)c3ccccc23)cc1 [Vatalanib]	> 10	1	0.1	> 10	IC50 (MCF7 [4]): > 10 µM; IC50 (MRC5): > 10 µM
Sarcatanib	–	–	–	–	IC50 (GIST-T1/670 [1]; [9]): > 10 µM; IC50 (GIST882; [9]): 1 µM; IC50 (GIST-T1 [2]; [9]): 5 µM; IC50 (GIST-T1/10R; [9]): > 10 µM
